According to patent publication US8859571B2, “Quinazoline compounds” (GlaxoSmithKline LLC, priority 2009, dated 2014):
Values joined by “and” are separate entries in the source; they are usually repeats but may differ in a detail not shown here. Equal entries are not always repeated. Structures can show the parent of a compound that is named as a salt.

Target: T1, Full length human TNNI3K (hTNNI3K) (Homo sapiens, UniProt Q59H18)
T1 construct: His-MBP-TEV-Full length human TNNI3K (hTNNI3K); His (N); MBP (N); TEV cleavage site (N); made in house; host or cells: baculovirus system (printed 'Baculokinase system')
T1 sequence (Q59H18 1-835): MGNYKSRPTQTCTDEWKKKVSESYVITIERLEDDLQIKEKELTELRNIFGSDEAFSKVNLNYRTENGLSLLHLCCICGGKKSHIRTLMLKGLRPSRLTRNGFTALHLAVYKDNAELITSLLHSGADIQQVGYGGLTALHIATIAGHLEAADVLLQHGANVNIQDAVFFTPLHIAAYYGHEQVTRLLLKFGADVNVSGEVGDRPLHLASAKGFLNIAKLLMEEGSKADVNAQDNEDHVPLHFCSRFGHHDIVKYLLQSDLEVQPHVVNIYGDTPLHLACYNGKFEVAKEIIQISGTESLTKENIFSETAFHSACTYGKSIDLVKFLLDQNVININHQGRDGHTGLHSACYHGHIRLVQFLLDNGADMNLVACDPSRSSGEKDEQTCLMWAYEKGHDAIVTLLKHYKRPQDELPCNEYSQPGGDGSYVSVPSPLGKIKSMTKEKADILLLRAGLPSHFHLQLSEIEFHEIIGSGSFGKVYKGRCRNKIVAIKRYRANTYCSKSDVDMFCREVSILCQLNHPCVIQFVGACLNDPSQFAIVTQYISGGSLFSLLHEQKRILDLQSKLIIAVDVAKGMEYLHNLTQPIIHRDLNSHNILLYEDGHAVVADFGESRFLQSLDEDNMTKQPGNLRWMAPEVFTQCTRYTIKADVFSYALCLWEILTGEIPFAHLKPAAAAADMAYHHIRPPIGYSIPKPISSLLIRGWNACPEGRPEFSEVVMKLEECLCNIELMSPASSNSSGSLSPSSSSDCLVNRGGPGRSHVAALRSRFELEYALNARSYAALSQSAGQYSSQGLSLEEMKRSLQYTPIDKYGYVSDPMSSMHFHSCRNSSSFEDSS
Assay: Fluorescent polarization assay of compound inhibition on hTNNI3K ATP binding (Biological Assay Method I)
Details: displacement of fluorescent ligand from hTNNI3K ATP binding pocket; mean of a minimum of 2 experiments; read-out: pXC50 (the source's name) (converted)
From the text: Materials: His-MBP-TEV-Full length human TNNI3K (hTNNI3K) was expressed in Baculokinase system and purified from amylase affinity column followed by Superdex200. The fluorescent ligand 5-({[2-({[3-({4-[(5-hydroxy-2-methylphenyl)amino]-2-pyrimidinyl}amino)phenyl]carbonyl}amino)ethyl]amino}carbonyl)-2-(6-hydroxy-3-oxo-3H-xanthen-9-yl)benzoic acid was used. The preparation of this fluorescent ligand is disclosed in U.S. Provisional Patent Application No. 61/237,815 filed Aug. 28, 2009, the disclosure of which is incorporated by reference herein. The other buffer components, including MgCl2 (Catalog Number M1028), Bis-Tris (Catalog Number B7535), DTT (Catalog Number D9779) and Chaps (Catalog Number C3023) were purchased from Sigma-Aldrich.
Biological Assay Method I:
A fluorescent polarization assay was used to determine does response of compound inhibition on hTNNI3K ATP binding.
Solution 1: Ten (10) mL of a 5 nM 5-({[2-({[3-({4-[(5-hydroxy-2-methylphenyl)amino]-2-pyrimidinyl}amino)phenyl]carbonyl}amino)ethyl]amino}carbonyl)-2-(6-hydroxy-3-oxo-3H-xanthen-9-yl)benzoic acid solution (Solution 1) was prepared by mixing 5 μL of 1M DTT and 80 μL of 10% (w/v) Chaps and 5 μL of a 10 μM 5-({[2-({[3-({4-[(5-hydroxy-2-methylphenyl)amino]-2-pyrimidinyl}amino)phenyl]carbonyl}amino) ethyl]amino}carbonyl)-2-(6-hydroxy-3-oxo-3H-xanthen-9-yl)benzoic acid stock solution into 9910 μL buffer (20 mM Tris, 15 mM MgCl2, pH 7.5). (Stock solution: 10 μM solution of 5-({[2-({[3-({4-[(5-hydroxy-2-methylphenyl)amino]-2-pyrimidinyl}amino)phenyl]carbonyl}amino)ethyl]amino}carbonyl)-2-(6-hydroxy-3-oxo-3H-xanthen-9-yl)benzoic acid in 100% DMSO)
Solution 2 was formed by mixing 53.8 μL of 2.6 μM hTNNI3K with a 6946.2 μL aliquot of Solution 1 (the above 5-({[2-({[3-({4-[(5-hydroxy-2-methylphenyl)amino]-2-pyrimidinyl}amino)phenyl]carbonyl}amino)ethyl]amino}carbonyl)-2-(6-hydroxy-3-oxo-3H-xanthen-9-yl)benzoic acid solution) to make up a 7 mL of mixture of hTNNI3K and 5-({[2-({[3-({4-[(5-hydroxy-2-methylphenyl)amino]-2-pyrimidinyl}amino)phenyl]carbonyl}amino)ethyl]amino}carbonyl)-2-(6-hydroxy-3-oxo-3H-xanthen-9-yl)benzoic acid (Solution 2).
Fifty (50) nL of inhibitors in DMSO (or DMSO controls) were stamped into a 384-well low volume Greiner black plate, followed by addition of 5 μL of Solution 1 to column 18 and 5 μL Solution 2 to columns 1-17 and 19-24 of the plate. The plate was then spun at 500 rpm for 30 seconds and incubated at room temperature for 60 minutes. After that, the fluorescent polarization was measured on Analyst (ex/em: 485/530 nm, Dichroic: 505). For dose response experiments, normalized data were fit by ABASE/XC50 and pXC50=(log((b−y)/(y−a)))/d−log(x), where x is the compound concentration and y is the % activity at specified compound concentration, a is the minimum % activity, b is the maximum % activity, and d is the Hill slope.
The pXC50s are averaged to determine a mean value, for a minimum of 2 experiments.

With CNS(=O)(=O)c1ccc(N(C)C)c(Nc2ncnc3ccc(OC)cc23)c1 [Example 10, 4-(dimethylamino)-N-methyl-3-{[6-(methyloxy)-4-quinazolinyl]amino}benzene sulfonamide trifluoroacetate] as the compound, how does the IC50 read?
The IC50 was 10 to 100 nM.

For CNS(=O)(=O)c1ccc(N(C)C)c(Nc2ncnc3cc(OC)cc(OC)c23)c1 [Example 32, 3-{[5,7-bis(methyloxy)-4-quinazolinyl]amino}-4-(dimethylamino)-N-methylbenzenesulfonamide], which IC50 is on record?
Its IC50 is 1 to 10 nM.

With CCOc1cc2ncnc(Nc3cc(S(=O)(=O)NC)ccc3OCC(F)(F)F)c2cc1OC [Example 80, 3-(7-ethoxy-6-methoxy-quinazolin-4-ylamino)-N-methyl-4-(2,2,2-trifluoro-ethoxy)-benzenesulfonamide trifluoroacetate] as the compound, how does the IC50 read?
The IC50 was 10 to 100 nM.

How did the IC50 turn out when CNS(=O)(=O)c1ccc(OC(C)C(F)(F)F)c(Nc2ncnc3cc(OC)cc(OC)c23)c1 (stereo not drawn) [Example 49, 3-{[5,7-bis(methyloxy)-4-quinazolinyl]amino}-N-methyl-4-[(2,2,2-trifluoro-1-methylethyl)oxy] benzenesulfonamide trifluoroacetate] was run?
Its IC50 is 1 to 10 nM.

With CNS(=O)(=O)c1ccc(OC(F)(F)F)c(Nc2ncnc3cc(OC)cc(OC)c23)c1 [Example 54, 3-{[5,7-bis(methyloxy)-4-quinazolinyl]amino}-N-methyl-4-[(trifluoromethyl)oxy] benzenesulfonamide hydrochloride] as the compound, how does the IC50 read?
The IC50 was 1 to 10 nM.

Which IC50 does the source give for CNS(=O)(=O)c1ccc(N2CCOCC2)c(Nc2ncnc3cc(OC)c(OC)cc23)c1 [Example 3, 3-{[6,7-bis(methyloxy)-4-quinazolinyl]amino}-N-methyl-4-(4-morpholinyl)benzenesulfonamide trifluoroacetate] here?
The IC50 was 10 to 100 nM and ~79.4 nM.

For CNc1ccc2ncnc(Nc3cc(S(=O)(=O)NC)ccc3N(C)C)c2c1 [Example 87, 4-(dimethylamino)-N-methyl-3-((6-(methylamino)quinazolin-4-yl)amino)benzenesulfonamide bis(trifluoroacetate)], which IC50 is on record?
Its IC50 is 10 to 100 nM.

With CNS(=O)(=O)c1ccc(N2CCCCC2)c(Nc2ncnc3cc(OC)c(OC)cc23)c1 [Example 25, 3-{[6,7-bis(methyloxy)-4-quinazolinyl]amino}-N-methyl-4-(1-piperidinyl) benzenesulfonamide trifluoroacetate] as the compound, how does the IC50 read?
The IC50 was 1 to 10 nM.

With CNc1ccc2c(Nc3cc(S(=O)(=O)NC)ccc3N(C)C)ncnc2c1 [Example 88, 4-(dimethylamino)-N-methyl-3-((7-(methylamino)quinazolin-4-yl)amino) benzenesulfonamide] as the compound, how does the IC50 read?
Its IC50 is 10 to 100 nM.

CNS(=O)(=O)c1ccc(N(C)C)c(Nc2ncnc3ccc(N(C)C)cc23)c1 [Example 86, 4-(dimethylamino)-3-((6-(dimethylamino)quinazolin-4-yl)amino)-N-methylbenzenesulfonamide bis(trifluoroacetate)] was tested. Which IC50 did it give?
Its IC50 is 10 to 100 nM.

Which IC50 does the source give for CNS(=O)(=O)c1ccc(OC(C)C(F)(F)F)c(Nc2ncnc3cc(OC)c(OC)cc23)c1 (stereo not drawn) [Example 69, 3-{[6,7-bis(methyloxy)-4-quinazolinyl]amino}-N-methyl-4-[(2,2,2-trifluoro-1-methylethyl)oxy] benzenesulfonamide] here?
The IC50 was 10 to 100 nM.

Which IC50 does the source give for CCOc1cc2c(Nc3cc(S(=O)(=O)NC)ccc3OCC(F)(F)F)ncnc2cc1OC [Example 42, 3-{[6-(ethyloxy)-7-(methyloxy)-4-quinazolinyl]amino}-N-methyl-4-[(2,2,2-trifluoroethyl)oxy] benzenesulfonamide hydrochloride] here?
Its IC50 is 10 to 100 nM.

Which IC50 does the source give for CNS(=O)(=O)c1ccc(N(C)C)c(Nc2ncnc3cc(OCCOC)c(OCCOC)cc23)c1 [Example 17, 3-[(6,7-bis{[2-(methyloxy)ethyl]oxy}-4-quinazolinyl)amino]-4-(dimethylamino)-N-methylbenzenesulfonamide trifluoroacetate] here?
The IC50 was 10 to 100 nM.

With CNS(=O)(=O)c1ccc(OC(F)(F)F)c(Nc2ncnc3cc(OC)cc(OC(C)C)c23)c1 [Example 65, N-methyl-3-{[5-[(1-methylethyl)oxy]-7-(methyloxy)-4-quinazolinyl]amino}-4-[(trifluoromethyl)oxy] benzenesulfonamide] as the compound, how does the IC50 read?
The IC50 was 10 to 100 nM.

With CCOc1cc(OC)cc2ncnc(Nc3cc(S(=O)(=O)NC)ccc3OCC(F)(F)F)c12 [Example 46, 3-{[5-(ethyloxy)-7-(methyloxy)-4-quinazolinyl]amino}-N-methyl-4-[(2,2,2-trifluoroethyl)oxy] benzenesulfonamide] as the compound, how does the IC50 read?
Its IC50 is 1 to 10 nM.

For CNS(=O)(=O)c1ccc(N2CCCCC2)c(Nc2ncnc3ccc(Cl)cc23)c1 [Example 26, 3-[(6-chloro-4-quinazolinyl)amino]-N-methyl-4-(1-piperidinyl) benzenesulfonamide trifluoroacetate], which IC50 is on record?
The IC50 was 10 to 100 nM.

Which IC50 does the source give for CNS(=O)(=O)c1ccc(OC(C)C(F)(F)F)c(Nc2ncnc3cc(OC)cc(OC(C)C)c23)c1 (stereo not drawn) [Example 67, N-methyl-3-{[5-[(1-methylethyl)oxy]-7-(methyloxy)-4-quinazolinyl]amino}-4-[(2,2,2-trifluoro-1-methylethyl)oxy] benzenesulfonamide] here?
Its IC50 is 10 to 100 nM.

With CNS(=O)(=O)c1ccc(OCC(F)(F)F)c(Nc2ncnc3cc(OCCOC)c(OCCOC)cc23)c1 [Example 19, 3-[(6,7-bis{[2-(methyloxy)ethyl]oxy}-4-quinazolinyl)amino]-N-methyl-4-[(2,2,2-trifluoroethyl)oxy] benzenesulfonamide] as the compound, how does the IC50 read?
The IC50 was 10 to 100 nM.

CNS(=O)(=O)c1cc(Nc2ncnc3cc(OC)c(OC)c(OC)c23)c(OCC(F)(F)F)cc1F [Example 58, 2-fluoro-N-methyl-4-[(2,2,2-trifluoroethyl)oxy]-5-{[5,6,7-tris(methyloxy)-4-quinazolinyl]amino}benzene sulfonamide trifluoroacetate] was tested. Which IC50 did it give?
Its IC50 is 10 to 100 nM.

With CNS(=O)(=O)c1ccc(OC(C)C(F)(F)F)c(Nc2ncnc3cc(OC)cc(OC)c23)c1 (single isomer, unassigned) [Example 82, 3-{[5,7-bis(methyloxy)-4-quinazolinyl]amino}-N-methyl-4-[(2,2,2-trifluoro-1-methylethyl)oxy]benzenesulfonamide hydrochloride] as the compound, how does the IC50 read?
The IC50 was 1 to 10 nM.

Which IC50 does the source give for CNS(=O)(=O)c1ccc(OC)c(Nc2ncnc3cc(OC)cc(OC)c23)c1 [Example 37, 3-{[5,7-bis(methyloxy)-4-quinazolinyl]amino}-N-methyl-4-(methyloxy) benzenesulfonamide hydrochloride] here?
The IC50 was 1 to 10 nM.
